Source: patent US10611750B2, “Tetrahydroquinoline compositions as bet bromodomain inhibitors” (FORMA Therapeutics, Inc., priority 2013, dated 2020)

How the values were obtained:
[1] = target: T1, BRD4 Bromodomain 1 (BRD4 BD1) (Homo sapiens, UniProt O60885); assay: AlphaScreen binding assay, BRD4 BD1; settings: His-tagged BRD4 BD1 50 nM, biotinylated H4 (1-21) K5/8/12/16 tetra-acetylated peptide 50 nM, compounds listed under IC50 range headings
T1 construct: 44-168 and BRD4 BD2
Method in brief: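 Compound dilution series were mixed with His-tagged BRD4 bromodomain and biotinylated tetra-acetylated H4 (1-21) peptide at pH 7.3 (BD1 and peptide at 50 nM, BD2 and peptide at 100 nM). Donor and acceptor beads were then added, and plates were equilibrated at least 1 h before reading. IC50 values were fitted with a four-parameter logistic model.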

[2] = target: T2, BRD4 Bromodomain 2 (BRD4 BD2) (Homo sapiens, UniProt O60885); assay: AlphaScreen binding assay, BRD4 BD2; settings: His-tagged BRD4 BD2 100 nM, biotinylated H4 (1-21) K5/8/12/16 tetra-acetylated peptide 100 nM, compounds listed under IC50 range headings
T2 construct: 333-460 were cloned, expressed, and purified to homogeneity
Method: The binding of Example compounds to BRD4 Bromodomain 1 and BRD4 Bromodomain 2 was assessed using 384-well AlphaScreen assay technology. His-epitope tagged BRD4 BD144-168 and BRD4 BD2333-460 were cloned, expressed, and purified to homogeneity. BRD4 BD1 and BRD4 BD2 binding and inhibition was assessed by monitoring the engagement of biotinylated Histone H4 (1-21) K5/8/12/16 tetra-acetylated peptide with the targets using the AlphaScreen technology (PerkinElmer). Specifically, in a 384-well black or white flat bottom plate, BRD4 BD1 (50 nM final) or BRD4 BD2 (100 nM final) was combined with peptide (50 nM final for BD1 or 100 nM final for BD2) in 50 mM HEPES (pH 7.3), 100 mM NaCl, 0.1% (w/v) BSA, and 0.01% (w/v) Triton X-100 either in the presence of DMSO (final 1.25% DMSO) or compound dilution series in DMSO. Alpha streptavidin donor beads and Nickel-chelate acceptor beads were added to a final concentration of 10 μg/ml each. After a minimum of 1 hour equilibration, plates were read on a BMG PHERAstar FS multi-label reader (BMG LabTech). The half maximal inhibitory concentration (IC50) values were calculated using IDBS Activity Base software with a four parameter logistic curve fit by the equation y=A+((B−A)/(1+((C/x)^D))), wherein A denotes the bottom plateau of the curve, B denotes the top plateau of the curve, C denotes the x value at the middle of the curve, D denotes the slope factor, x denotes the original known x values, and y denotes the original known y values. Data was fitted using the Levenburg Marquardt algorithm.

Row | SMILES | IC50 [1] [nM] | IC50 [2] [nM]
1 | CC(=O)N1c2ccc(-c3cnn(C4CCNCC4)c3)c(OC[C@H]3CCC(=O)N3)c2CC[C@@H]1C [I-435] | 1000 to 10000 | 50 to 500
2 | CC(=O)N1c2ccc(-c3cnn(CCS(C)(=O)=O)c3)c(OCCN(C)S(C)(=O)=O)c2CC[C@@H]1C [I-436] | 1000 to 10000 | 50 to 500
3 | CC(=O)N1c2ccc(-c3cnn(CC(C)(C)O)c3)c(OCCN(C)S(C)(=O)=O)c2CC[C@@H]1C [I-437] | 1000 to 10000 | 50 to 500
4 | CC(=O)N1c2ccc(-c3cnn(CCO)c3)c(OCCN(C)S(C)(=O)=O)c2CC[C@@H]1C [I-438] | 1000 to 10000 | 50 to 500
5 | CC(=O)N1c2ccc(-c3cnn(C4CCNCC4)c3)c(OCCN(C)S(C)(=O)=O)c2CC[C@@H]1C [I-439] | 1000 to 10000 | 50 to 500
6 | CC(=O)N1c2ccc(-c3cnn(CCO)c3)c(OC[C@H]3CCNC3)c2CC[C@@H]1C [I-440] | 1000 to 10000 | 50 to 500
7 | CCCOc1c(-c2cnn(CCS(C)(=O)=O)c2)ccc2c1CC[C@H](C)N2C(=O)OC [I-441] | 1000 to 10000 | 50 to 500
8 | COC(=O)N1c2ccc(-c3cnn(CCS(C)(=O)=O)c3)c(OCC3CCOCC3)c2CC[C@@H]1C [I-448] | 1000 to 10000 | 50 to 500
9 | COC(=O)N1c2ccc(-c3cnn(CCO)c3)c(OCC3CCOCC3)c2CC[C@@H]1C [I-450] | 1000 to 10000 | 50 to 500
10 | COC(=O)N1c2ccc(-c3cnn(C4CCNCC4)c3)c(OCC3CCOCC3)c2CC[C@@H]1C [I-451] | 1000 to 10000 | 50 to 500
11 | COC(=O)N1c2ccc(-c3cnn(CCS(C)(=O)=O)c3)c(OCC(=O)N(C)C)c2CC[C@@H]1C [I-452] | 1000 to 10000 | 50 to 500
12 | COC(=O)N1c2ccc(-c3cnn(CC(C)(C)O)c3)c(OCC(=O)N(C)C)c2CC[C@@H]1C [I-453] | 1000 to 10000 | 50 to 500
13 | COC(=O)N1c2ccc(-c3cnn(C4CCNCC4)c3)c(OCC(=O)N(C)C)c2CC[C@@H]1C [I-454] | 1000 to 10000 | 50 to 500
14 | COC(=O)N1c2ccc(-c3cnn(CCS(C)(=O)=O)c3)c(OCC(C)C)c2CC[C@@H]1C [I-455] | 1000 to 10000 | 50 to 500
15 | COC(=O)N1c2ccc(-c3cnn(CC(C)(C)O)c3)c(OCC(C)C)c2CC[C@@H]1C [I-456] | 1000 to 10000 | 50 to 500
16 | COC(=O)N1c2ccc(-c3cnn(CCO)c3)c(OCC(C)C)c2CC[C@@H]1C [I-457] | 1000 to 10000 | 50 to 500
17 | COC(=O)N1c2ccc(-c3cnn(CC(C)(C)O)c3)c(OCC3CCCC3)c2CC[C@@H]1C [I-460] | 1000 to 10000 | 50 to 500
18 | COC(=O)N1c2ccc(-c3cnn(CCS(C)(=O)=O)c3)c(OCC(=O)N3CCCC3)c2CC[C@@H]1C [I-463] | 1000 to 10000 | 50 to 500
19 | COC(=O)N1c2ccc(-c3cnn(CC(C)(C)O)c3)c(OCC(=O)N3CCCC3)c2CC[C@@H]1C [I-464] | 1000 to 10000 | 50 to 500
20 | COC(=O)N1c2ccc(-c3cnn(CCO)c3)c(OCC(=O)N3CCCC3)c2CC[C@@H]1C [I-465] | 1000 to 10000 | 50 to 500
21 | COC(=O)N1c2ccc(-c3cnn(CCS(C)(=O)=O)c3)c(OC[C@H]3CCC(=O)N3)c2CC[C@@H]1C [I-467] | 1000 to 10000 | 50 to 500
22 | COC(=O)N1c2ccc(-c3cnn(CC(C)(C)O)c3)c(OC[C@H]3CCC(=O)N3)c2CC[C@@H]1C [I-468] | 1000 to 10000 | 50 to 500
23 | COC(=O)N1c2ccc(-c3cnn(CCO)c3)c(OC[C@H]3CCC(=O)N3)c2CC[C@@H]1C [I-469] | 1000 to 10000 | 50 to 500
24 | COC(=O)N1c2ccc(-c3cnn(C4CCNCC4)c3)c(OC[C@H]3CCC(=O)N3)c2CC[C@@H]1C [I-470] | 1000 to 10000 | 50 to 500

Row | SMILES | IC50 [1] [nM] | IC50 [2] [nM]
25 | COC(=O)N1c2ccc(-c3cnn(CCS(C)(=O)=O)c3)c(OCCN(C)S(C)(=O)=O)c2CC[C@@H]1C [I-471] | 1000 to 10000 | 50 to 500
26 | COC(=O)N1c2ccc(-c3cnn(CC(C)(C)O)c3)c(OCCN(C)S(C)(=O)=O)c2CC[C@@H]1C [I-472] | 1000 to 10000 | 50 to 500
27 | COC(=O)N1c2ccc(-c3cnn(CCO)c3)c(OCCN(C)S(C)(=O)=O)c2CC[C@@H]1C [I-473] | 1000 to 10000 | 50 to 500
28 | COC(=O)N1c2ccc(-c3cnn(C4CCNCC4)c3)c(OCCN(C)S(C)(=O)=O)c2CC[C@@H]1C [I-474] | 1000 to 10000 | 50 to 500
29 | COC(=O)N1c2ccc(-c3cnn(CCS(C)(=O)=O)c3)c(OC[C@H]3CCNC3)c2CC[C@@H]1C [I-475] | 1000 to 10000 | 50 to 500
30 | COC(=O)N1c2ccc(-c3cnn(C4CCNCC4)c3)c(OC[C@H]3CCNC3)c2CC[C@@H]1C [I-477] | 1000 to 10000 | 50 to 500
31 | CC(=O)N1c2ccc(-c3cnn(C4CC4)c3)c(OCc3ncc(C)o3)c2CC[C@@H]1C [I-478] | 1000 to 10000 | 50 to 500
32 | CC(=O)N1c2ccc(-c3cnn(C4CC4)c3)c(OCc3nc4ccccc4o3)c2CC[C@@H]1C [I-481] | ≥ 10000 | ≥ 500
33 | CCCOc1c(-c2ccc(S(C)(=O)=O)cc2)ccc2c1CC[C@H](C)N2C(C)=O [I-482] | 1000 to 10000 | ≥ 500
34 | CC(=O)N1c2ccc(-c3ccc(S(C)(=O)=O)cc3)c(OCC(=O)N(C)C)c2CC[C@@H]1C [I-483] | 1000 to 10000 | ≥ 500
35 | CCCOc1c(-c2ccc(S(=O)(=O)CC)cc2)ccc2c1CC[C@H](C)N2C(C)=O [I-484] | 1000 to 10000 | 50 to 500
36 | CCS(=O)(=O)c1ccc(-c2ccc3c(c2OCC(=O)N(C)C)CC[C@H](C)N3C(C)=O)cc1 [I-485] | 1000 to 10000 | ≥ 500
37 | CCCOc1c(-c2cccc(C(=O)N3CCOCC3)c2)ccc2c1CC[C@H](C)N2C(C)=O [I-488] | 1000 to 10000 | 50 to 500
38 | CC(=O)N1c2ccc(-c3cccc(C(=O)N4CCOCC4)c3)c(OCC(=O)N(C)C)c2CC[C@@H]1C [I-489] | ≥ 10000 | ≥ 500
39 | CCCOc1c(-c2cccc(NS(C)(=O)=O)c2)ccc2c1CC[C@H](C)N2C(C)=O [I-490] | 1000 to 10000 | 50 to 500
40 | CCCOc1c(-c2cccc(S(C)(=O)=O)c2)ccc2c1CC[C@H](C)N2C(C)=O [I-492] | 1000 to 10000 | 50 to 500
41 | CC(=O)N1c2ccc(-c3cccc(S(C)(=O)=O)c3)c(OCC(=O)N(C)C)c2CC[C@@H]1C [I-493] | 1000 to 10000 | ≥ 500
42 | CCCOc1c(-c2ccc(NS(C)(=O)=O)cc2)ccc2c1CC[C@H](C)N2C(C)=O [I-494] | 1000 to 10000 | 50 to 500
43 | CC(=O)N1c2ccc(-c3ccc(NS(C)(=O)=O)cc3)c(OCC(=O)N(C)C)c2CC[C@@H]1C [I-495] | 1000 to 10000 | ≥ 500
44 | CCCOc1c(-c2ccc(C(=O)N3CCOCC3)cc2)ccc2c1CC[C@H](C)N2C(C)=O [I-496] | 1000 to 10000 | 50 to 500
45 | CC(=O)N1c2ccc(-c3ccc(C(=O)N4CCOCC4)cc3)c(OCC(=O)N(C)C)c2CC[C@@H]1C [I-497] | 1000 to 10000 | 50 to 500
46 | CCCOc1c(-c2ccc(N3CCCS3(=O)=O)cc2)ccc2c1CC[C@H](C)N2C(C)=O [I-498] | 1000 to 10000 | 50 to 500
47 | CC(=O)N1c2ccc(-c3ccc(N4CCCS4(=O)=O)cc3)c(OCC(=O)N(C)C)c2CC[C@@H]1C [I-499] | 1000 to 10000 | 50 to 500
